Assay results published in patent US20260265252A1, “SOLID STATE FORMS OF IMIPRIDONE DERIVATIVE” (CHIMERIX, INC., priority 2024, published 2026).
Where a name gives a salt, the structure may show the parent alone.

Test: ICH-compliant stability study of ONC206-HCl Drug Substance (appearance, XRPD form, HPLC assay, purity/impurities, water content, particle size, microbial)
Format: physicochemical
Set-up: key to Each unidentified impurity (NMT 0.5% area) / Appearance (White to off-white solid) / Polymorphic form (XRPD) (Consistent with form 2 reference diffractogram): C = Conforms; A = Absence
Experimental: The purpose of the ICH-compliant stability study was to evaluate the performance to specifications of ONC206-HCl Drug Substance under specified container closure configuration, storage conditions, and intervals.
The study was performed according to ICH Q1A(R2) and QlE Guidance documents. […]
The Container Closure Systems were: • Primary container: LDPE bag, 4×8 inches (Source: Nexus—64378); bag closure PE 180 nm (Source: Entourage), • Secondary container: LDPE bag, 4×8 inches (Source: Nexus—64378); bag closure PE 180 nm (Source: Entourage), • Tertiary container: Heat-sealed foil bag, 15×30 (Source: SERCALIA S.L.—10234), and • Outer container: Plastic drum, 6 L (Source: Curtec, HDPE ref 54021) or Plastic drum, 3.6 L (Source: Curtec).

[1] = 30 ± 2° C./65% ± 5% RH intermediate conditions, 9 months
[2] = 30 ± 2° C./65% ± 5% RH intermediate conditions, 12 months
[3] = 40 ± 2° C./75% ± 5% RH accelerated conditions, 0 months
[4] = 40 ± 2° C./75% ± 5% RH accelerated conditions, 3 months
[5] = 40 ± 2° C./75% ± 5% RH accelerated conditions, 6 months
[6] = at all conditions, over the course of the study

## O=C1C2=C(CCN(Cc3ccccc3)C2)N2CCN=C2N1Cc1ccc(F)cc1F [ONC206-HCl, 7-benzyl-4-(2,4-difluorobenzyl)-2,4,6,7,8,9-hexahydroimidazo[1,2-a]pyrido[3,4-e]pyrimidin-5(1H)-one]
[1]
  Particle Size (Malvern) D10 (Report result μm): 30.5 μm
  Particle Size (Malvern) D50 (Report result μm): 93.2 μm
  Particle Size (Malvern) D90 (Report result μm): 197.0 μm
  Polymorphic form (XRPD) (Consistent with form 2 reference diffractogram): C
  Purity by HPLC (NLT 98.0% area): 100.0 % area
  Total impurities (NMT 2.0% area): 0.00 % area
  Water Content by Kf (Report result % w/w): 9.3 % w/w
[2]
  Appearance (White to off-white solid): C
  Assay by HPLC-UV (Anhydrous & Solvent Free basis) 97.0-103.0% w/w: 100.0 % w/w
  Each unidentified impurity (NMT 0.5% area): C
  Particle Size (Malvern) D10 (Report result μm): 29.7 μm
  Particle Size (Malvern) D50 (Report result μm): 93.7 μm
  Particle Size (Malvern) D90 (Report result μm): 203.0 μm
  Polymorphic form (XRPD) (Consistent with form 2 reference diffractogram): C
  Purity by HPLC (NLT 98.0% area): 100.0 % area
  Total impurities (NMT 2.0% area): 0.00 % area
  Water Content by Kf (Report result % w/w): 9.3 % w/w
40° C. (Table 40), 75% RH accelerated conditions
  period over which stability is confirmed: 6 months
[3]
  Appearance (White to off-white solid): C
  Assay by HPLC-UV (Anhydrous & Solvent Free basis) 97.0-103.0% w/w: 101.6 % w/w
  Each unidentified impurity (NMT 0.5% area): C
  Particle Size (Malvern) D10 (Report result μm): 28.2 μm
  Particle Size (Malvern) D50 (Report result μm): 91.4 μm
  Particle Size (Malvern) D90 (Report result μm): 201.3 μm
  Polymorphic form (XRPD) (Consistent with form 2 reference diffractogram): C
  Purity by HPLC (NLT 98.0% area): 100.0 % area
  Total impurities (NMT 2.0% area): 0.00 % area
  Water Content by Kf (Report result % w/w): 9.3 % w/w
[4]
  Appearance (White to off-white solid): C
  Assay by HPLC-UV (Anhydrous & Solvent Free basis) 97.0-103.0% w/w: 100.1 % w/w
  Each unidentified impurity (NMT 0.5% area): C
  Particle Size (Malvern) D10 (Report result μm): 28.1 μm
  Particle Size (Malvern) D50 (Report result μm): 91.5 μm
  Particle Size (Malvern) D90 (Report result μm): 199.0 μm
  Polymorphic form (XRPD) (Consistent with form 2 reference diffractogram): C
  Purity by HPLC (NLT 98.0% area): 100.0 % area
  Total impurities (NMT 2.0% area): 0.00 % area
  Water Content by Kf (Report result % w/w): 9.5 % w/w
40 ± 2° C./75% ± 5% RH accelerated conditions, 3 months, peak RRT 1.30
  Each unidentified impurity (Report RRT and % area for peaks ≥0.10% area): 0.10% aire
[5]
  Appearance (White to off-white solid): C
  Assay by HPLC-UV (Anhydrous & Solvent Free basis) 97.0-103.0% w/w: 100.2 % w/w
  Each unidentified impurity (NMT 0.5% area): C
  Particle Size (Malvern) D10 (Report result μm): 29.2 μm
  Particle Size (Malvern) D50 (Report result μm): 92.6 μm
  Particle Size (Malvern) D90 (Report result μm): 201.0 μm
  Polymorphic form (XRPD) (Consistent with form 2 reference diffractogram): C
  Purity by HPLC (NLT 98.0% area): 100.0 % area
  Total impurities (NMT 2.0% area): 0.00 % area
  Water Content by Kf (Report result % w/w): 9.5 % w/w
[6]
  Particle Size (D10, D50 and D90): no significant evolution
  Polymorphic form (XRPD): no significant change
  Purity and total impurities: no significant evolution
  Water Content: no significant evolution
  appearance: no significant change
Over the course of the study
  Assay HPLC: no significant evolution
  microbial results: in specifications
−20° C. (Table 41)
  period over which stability is confirmed: 12 months
−20° C., 0 months
  Appearance (White to off-white solid): C
  Assay by HPLC-UV (Anhydrous & Solvent Free basis) 97.0-103.0% w/w: 101.6 % w/w
  Each unidentified impurity (NMT 0.5% area): C
  Particle Size (Malvern) D50 (Report result μm): 91.4 μm
  Particle Size (Malvern) D90 (Report result μm): 201.3 μm
  Particle Size (Malvern) Dl0 (Report result μm): 28.2 μm
  Polymorphic form (XRPD) (Consistent with form 2 reference diffractogram): C
  Purity by HPLC (NLT 98.0% area): 100.0 % area
  Total impurities (NMT 2.0% area): 0.00 % area
  Water Content by Kf (Report result % w/w): 9.3 % w/w
−20° C., 1 months
  Appearance (White to off-white solid): C
  Assay by HPLC-UV (Anhydrous & Solvent Free basis) 97.0-103.0% w/w: 101.5 % w/w
  Each unidentified impurity (NMT 0.5% area): C
  Particle Size (Malvern) D50 (Report result μm): 89.5 μm
  Particle Size (Malvern) D90 (Report result μm): 193.0 μm
  Particle Size (Malvern) Dl0 (Report result μm): 27.5 μm
  Polymorphic form (XRPD) (Consistent with form 2 reference diffractogram): C
  Purity by HPLC (NLT 98.0% area): 100.0 % area
  Total impurities (NMT 2.0% area): 0.00 % area
  Water Content by Kf (Report result % w/w): 9.3 % w/w
−20° C., 2 months
  Appearance (White to off-white solid): C
  Assay by HPLC-UV (Anhydrous & Solvent Free basis) 97.0-103.0% w/w: 100.2 % w/w
  Each unidentified impurity (NMT 0.5% area): C
  Particle Size (Malvern) D50 (Report result μm): 90.6 μm
  Particle Size (Malvern) D90 (Report result μm): 189.0 μm
  Particle Size (Malvern) Dl0 (Report result μm): 28.8 μm
  Polymorphic form (XRPD) (Consistent with form 2 reference diffractogram): C
  Purity by HPLC (NLT 98.0% area): 100.0 % area
  Total impurities (NMT 2.0% area): 0.00 % area
  Water Content by Kf (Report result % w/w): 9.4 % w/w
−20° C., 3 months
  Appearance (White to off-white solid): C
  Assay by HPLC-UV (Anhydrous & Solvent Free basis) 97.0-103.0% w/w: 100.0 % w/w
  Each unidentified impurity (NMT 0.5% area): C
  Particle Size (Malvern) D50 (Report result μm): 89.4 μm
  Particle Size (Malvern) D90 (Report result μm): 195.0 μm
  Particle Size (Malvern) Dl0 (Report result μm): 27.2 μm
  Polymorphic form (XRPD) (Consistent with form 2 reference diffractogram): C
  Purity by HPLC (NLT 98.0% area): 100.0 % area
  Total impurities (NMT 2.0% area): 0.00 % area
  Water Content by Kf (Report result % w/w): 9.5 % w/w
−20° C., 6 months
  Appearance (White to off-white solid): C
  Assay by HPLC-UV (Anhydrous & Solvent Free basis) 97.0-103.0% w/w: 100.1 % w/w
  Each unidentified impurity (NMT 0.5% area): C
  Particle Size (Malvern) D50 (Report result μm): 89.0 μm
  Particle Size (Malvern) D90 (Report result μm): 192.0 μm
  Particle Size (Malvern) Dl0 (Report result μm): 27.5 μm
  Polymorphic form (XRPD) (Consistent with form 2 reference diffractogram): C
  Purity by HPLC (NLT 98.0% area): 100.0 % area
  Total impurities (NMT 2.0% area): 0.00 % area
  Water Content by Kf (Report result % w/w): 9.3 % w/w
−20° C., 9 months
  Appearance (White to off-white solid): C
  Assay by HPLC-UV (Anhydrous & Solvent Free basis) 97.0-103.0% w/w: 100.4 % w/w
  Each unidentified impurity (NMT 0.5% area): C
  Particle Size (Malvern) D50 (Report result μm): 91.8 μm
  Particle Size (Malvern) D90 (Report result μm): 196.0 μm
  Particle Size (Malvern) Dl0 (Report result μm): 29.5 μm
  Polymorphic form (XRPD) (Consistent with form 2 reference diffractogram): C
  Purity by HPLC (NLT 98.0% area): 100.0 % area
  Total impurities (NMT 2.0% area): 0.00 % area
  Water Content by Kf (Report result % w/w): 9.3 % w/w
−20° C., 12 months
  Appearance (White to off-white solid): C
  Assay by HPLC-UV (Anhydrous & Solvent Free basis) 97.0-103.0% w/w: 99.9 % w/w
  Each unidentified impurity (NMT 0.5% area): C
  Particle Size (Malvern) D50 (Report result μm): 92.2 μm
  Particle Size (Malvern) D90 (Report result μm): 201.0 μm
  Particle Size (Malvern) Dl0 (Report result μm): 28.7 μm
  Polymorphic form (XRPD) (Consistent with form 2 reference diffractogram): C
  Purity by HPLC (NLT 98.0% area): 100.0 % area
  Total impurities (NMT 2.0% area): 0.00 % area
  Water Content by Kf (Report result % w/w): 9.2 % w/w
